# Laboratory results: patent US20160100574A1, “Antimicrobial Compositions Comprising Glyceryl Ethers” (SYMRISE AG, priority 2013, published 2016)
# Tests used:
# Format in all cases: cell-based
# [1] = system: A. brasiliensis; assay: Challenge test / synergy (Kull equation), A. brasiliensis
# Procedure: (§1) 1% b.w. of heptylglycerin, benzylglycerin and phenylpropylglycerin, respectively was added to an aqueous emulsion of Glyceryl stearyl citrate (Dracorin CE). The formulations were tested in standard challenge tests against various micro-organisms.
# To calculate the synergism between compounds of formula (I) and other antimicrobial actives, the Kull equation^1 2 was used
# SI=(Cmixture×PA)/CA+(Cmixture×PB)/CB (I)
# where SI is the Synergy Index according to Kull^1), 2) CA is the cell count for substance A CB is the cell count for substance B Cmixture is the cell count for the mixture of substances A and B PA is the proportion of the substance A in the mixture PB is the proportion of the substance B in the mixture. ^1 Kull, F. C., Eismann, P. C., Sylvestrowicz, H. D., and R. L. Mayer (1961). Mixtures of Quaternary Ammonium Compounds and Long-chain Fatty Acids as Antifungal Agents. Applied Microbiology 9, 538-541.^2 Steinberg, D.C. (2000). Measuring Synergy. Cosmetics & Toiletries 115 (11), 59-62.
# Colony counts of <100 were arbitrarily set to 100, in order to allow for synergy calculations with the above equation. The abbreviation “n.a.” means not applicable.
# [2] = system: Staphylococcus aureus; assay: Minimum inhibitory concentration according to DIN 58940, Staphylococcus aureus; settings: single antimicrobial agents
# Excerpt: (§2) In order to calculate the Synergy Index SI with MIC values, the Kull equation is used as follows:
# (§3) SI=(MICmixture×PA)/MICA+(MICmixture×PB)/MICB (II)
# (§4) where SI is the Synergy Index according to Kull^1), 2) MICA is the MIC value for substance A MICB is the MIC value for substance B MICmixture is the MIC value for the mixture of substances A and B PA is the proportion of the substance A in the mixture PB is the proportion of the substance B in the mixture. b) Mixtures containing 3 components
# (§5) SI=(MICmixture×PA)/MICA+(MICmixture×PB)/MICB+(MICmixture×PC)/MICC
# (§6) where SI is the Synergy Index according to Kull^1), 2) MICA is the MIC value for substance A MICB is the MIC value for substance B MICC is the MIC value for substance C MICmixture is the MIC value for the mixture of substances […] PA is the proportion of the substance A in the mixture PB is the proportion of the substance B in the mixture. PC is the proportion of the substance C in the mixture.
# [3] = system: Candida albicans; assay: Minimum inhibitory concentration according to DIN 58940, Candida albicans; settings: single antimicrobial agents
# Excerpt: as §2, §3, §4, §5, §6
# [4] = system: Aspergillus brasiliensis; assay: Minimum inhibitory concentration according to DIN 58940, Aspergillus brasiliensis; settings: single antimicrobial agents
# Excerpt: as §2, §3, §4, §5, §6
# [5] = system: Pseudomonas aeruginosa; assay: Minimum inhibitory concentration according to DIN 58940, Pseudomonas aeruginosa; settings: single antimicrobial agents
# Excerpt: as §2, §3, §4, §5, §6
# [6] = system: Escherichia coli; assay: Minimum inhibitory concentration according to DIN 58940, Escherichia coli; settings: single antimicrobial agents
# Excerpt: as §2, §3, §4, §5, §6
# [7] = system: C. albicans; assay: Challenge test of preserved emulsion, C. albicans
# Procedure: as §1, with “micro-organisms. The results are shown in Table 1 and indicate the high activity of the actives against yeast and bacteria, but not against mould.” for “micro-organisms.”
# [8] = system: E. coli; assay: Challenge test of preserved emulsion, E. coli
# Procedure: as §1, with “micro-organisms. The results are shown in Table 1 and indicate the high activity of the actives against yeast and bacteria, but not against mould.” for “micro-organisms.”
# [9] = system: P. aeruginosa; assay: Challenge test of preserved emulsion, P. aeruginosa
# Procedure: as §1, with “micro-organisms. The results are shown in Table 1 and indicate the high activity of the actives against yeast and bacteria, but not against mould.” for “micro-organisms.”
# [10] = system: S. aureus; assay: Challenge test of preserved emulsion, S. aureus
# Procedure: as §1, with “micro-organisms. The results are shown in Table 1 and indicate the high activity of the actives against yeast and bacteria, but not against mould.” for “micro-organisms.”
# [11] = Table 2, day 0, 1.0% total active
# [12] = Table 2, day 0, relative to day 0, 1.0% total active
# [13] = Table 2, day 2, 1.0% total active
# [14] = Table 2, day 2, relative to day 0, 1.0% total active
# [15] = Table 2, day 7, 1.0% total active
# [16] = Table 2, day 7, relative to day 0, 1.0% total active
# [17] = Table 2, day 14, 1.0% total active
# [18] = Table 2, day 14, relative to day 0, 1.0% total active
# [19] = Table 2, day 28, 1.0% total active
# [20] = Table 2, day 28, relative to day 0, <100 set to 100, 1.0% total active
# [21] = Day 14, 1% b.w. active in aqueous emulsion of Glyceryl stearyl citrate (Dracorin CE)
# [22] = Day 28, 1% b.w. active in aqueous emulsion of Glyceryl stearyl citrate (Dracorin CE)
# [23] = Day 0, 1% b.w. active in aqueous emulsion of Glyceryl stearyl citrate (Dracorin CE)
# [24] = Day 2, 1% b.w. active in aqueous emulsion of Glyceryl stearyl citrate (Dracorin CE)
# [25] = Day 7, 1% b.w. active in aqueous emulsion of Glyceryl stearyl citrate (Dracorin CE)
compound,measurement,setting,value
"CC(=O)c1ccc(O)cc1 [4HAP, 4-hydroxyacetophenone]",Colony counts day 0,[1]; [11],300.000 cfu/g formulation
same,Relative colony counts day 0,[1]; [12],1.0000
same,Colony counts day 2,[1]; [13],56.000 cfu/g formulation
same,Relative colony counts day 2,[1]; [14],0.1867
same,Colony counts day 7,[1]; [15],1.900 cfu/g formulation
same,Relative colony counts day 7,[1]; [16],0.0063
same,Colony counts day 14,[1]; [17],1.900 cfu/g formulation
same,Relative colony counts day 14,[1]; [18],0.0063
same,Colony counts day 28,[1]; [19],<100 cfu/g formulation
same,Relative colony counts day 28,[1]; [20],0.0003
same,Colony counts day 0,"[1]; Table 3, day 0, 1.0% total active",300.000 cfu/g formulation
same,Relative colony counts day 0,"[1]; Table 3, day 0, relative to day 0, 1.0% total active",1.0000
same,Colony counts day 2,"[1]; Table 3, day 2, 1.0% total active",56.000 cfu/g formulation
same,Relative colony counts day 2,"[1]; Table 3, day 2, relative to day 0, 1.0% total active",0.1867
same,Colony counts day 7,"[1]; Table 3, day 7, 1.0% total active",1.900 cfu/g formulation
same,Relative colony counts day 7,"[1]; Table 3, day 7, relative to day 0, 1.0% total active",0.0063
same,Colony counts day 14,"[1]; Table 3, day 14, 1.0% total active",1.900 cfu/g formulation
same,Relative colony counts day 14,"[1]; Table 3, day 14, relative to day 0, 1.0% total active",0.0063
same,Colony counts day 28,"[1]; Table 3, day 28, 1.0% total active",<100 cfu/g formulation
same,Relative colony counts day 28,"[1]; Table 3, day 28, relative to day 0, <100 set to 100, 1.0% total active",0.0003
same,MIC values Staphylococcus aureus,[2],6000 ppm
same,MIC values Candida albicans,[3],6000 ppm
same,MIC values Aspergillus brasiliensis,[4],4000 ppm
same,MIC values Pseudomonas aeruginosa,[5],4000 ppm
same,MIC values E. coli,[6],4000 ppm
OCC(O)COCc1ccccc1 (stereo not drawn) [Benzylglycerin],colony counts Day 14,[7]; [21],0 cfu/g formulation
same,colony counts Day 28,[7]; [22],0 cfu/g formulation
same,colony counts Day 0,[8]; [23],250.000 cfu/g formulation
same,colony counts Day 2,[8]; [24],0 cfu/g formulation
same,colony counts Day 7,[8]; [25],0 cfu/g formulation
same,colony counts Day 14,[8]; [21],0 cfu/g formulation
same,colony counts Day 28,[8]; [22],0 cfu/g formulation
same,colony counts Day 0,[9]; [23],210.000 cfu/g formulation
same,colony counts Day 2,[9]; [24],0 cfu/g formulation
same,colony counts Day 7,[9]; [25],0 cfu/g formulation
same,colony counts Day 14,[9]; [21],0 cfu/g formulation
same,colony counts Day 28,[9]; [22],0 cfu/g formulation
same,colony counts Day 0,[10]; [23],240.000 cfu/g formulation
same,colony counts Day 2,[10]; [24],700 cfu/g formulation
same,colony counts Day 7,[10]; [25],<100 cfu/g formulation
same,colony counts Day 14,[10]; [21],0 cfu/g formulation
same,colony counts Day 28,[10]; [22],0 cfu/g formulation
same,colony counts Day 0,[1]; [23],360.000 cfu/g formulation
same,colony counts Day 2,[1]; [24],490.000 cfu/g formulation
same,colony counts Day 14,[1]; [21],300.000 cfu/g formulation
same,colony counts Day 28,[1]; [22],30.000 cfu/g formulation
same,MIC,[2]; Staphylococcus aureus,20 mg/mL
same,MIC,[3]; Candida albicans,20 mg/mL
same,MIC,[4]; Aspergillus brasiliensis,20 mg/mL
same,MIC,[5]; Pseudomonas aeruginosa,20 mg/mL
same,MIC,"[6]; Escherichia coli, read-out: MIC values E. coli",10 mg/mL
CCCCC(CC)COCC(O)CO (stereo not drawn) [Ethylhexylglycerin],Colony counts day 0,[1]; [11],315.000 cfu/g formulation
same,Relative colony counts day 0,[1]; [12],1.0000
same,Colony counts day 2,[1]; [13],159.000 cfu/g formulation
same,Relative colony counts day 2,[1]; [14],0.5048
same,Colony counts day 7,[1]; [15],150.000 cfu/g formulation
same,Relative colony counts day 7,[1]; [16],0.4762
same,Colony counts day 14,[1]; [17],304.000 cfu/g formulation
same,Relative colony counts day 14,[1]; [18],0.9635
same,Colony counts day 28,[1]; [19],304.000 cfu/g formulation
same,Relative colony counts day 28,[1]; [20],0.9635
same,MIC values Staphylococcus aureus,[2],2000 ppm
same,MIC values Candida albicans,[3],2000 ppm
same,MIC values Aspergillus brasiliensis,[4],2000 ppm
same,MIC values Pseudomonas aeruginosa,[5],>20000 ppm
same,MIC values E. coli,[6],2500 ppm
